# “Also recorded” adds a separate entry of the source.
# Experiments:
# [1] = test system: F344 kidney allograft in LEW recipient rats; assay: Kidney graft histology, modified Banff criteria (Example 1); type: in vivo, rat; details: for Banff grade: Fibro-intimal Hyperplasia / Banff grade: Glomerulitis / Banff grade: Glomerulosclerosis / Banff grade: Inflammation / Banff grade: Mesangiolysis / Banff grade: Transplant Glomerulopathy / Banff grade: Tubular Atrophy / Banff grade: Tubulitis / Banff grade: Vasculitis: graft day 90, one line per rat; for approximate cumulative reduction in Banff score: fibro-intimal hyperplasia / approximate cumulative reduction in Banff score: glomerulitis / approximate cumulative reduction in Banff score: glomerulosclerosis / approximate cumulative reduction in Banff score: interstitial inflammation / approximate cumulative reduction in Banff score: mesangiolysis / approximate cumulative reduction in Banff score: transplant glomerulopathy / approximate cumulative reduction in Banff score: tubular atrophy / approximate cumulative reduction in Banff score: tubulitis / approximate cumulative reduction in Banff score: vasculitis: vs untreated allograft control
# Description: (§1) Inbred male Lewis rats (LEW) (RT1^I), weighing 250-300 g, were used as kidney transplantation recipients. Inbred male LEW and Fisher (F344) (RT1^IvI), weighing 250-350 g, were used as isograft and allograft donor rats, respectively. Kidney transplantation was performed using the modified technique of Fisher and Lee. [Fisher et al., Surgery, 58:904-914, 1965] Survival of kidney transplant was measured as time of recipient rat survival. Blood and 24 hr urine samples were collected once a week for plasma creatinine, proteinuria, and the measurement of antibody titer against donor glomeruli basement membrane protein (GBM). Kidney grafts were harvested on the 90th day posttranspalantation and subjected to histology and reverse transcriptase-polymerase chain reaction (RT-PCR) analysis. The compound (I), at doses of 10 mg/kg and 20 mg/kg were administered orally to recipient rats daily from day 0 to day 9 after transplantation. Control isograft and allograft recipients received no drug after transplantation.
# Kidney graft tissues were harvested from recipients on day 90th after transplantation for histological analysis. Graft samples were fixed in 10% NBF and subsequently processed then immediately embedded in ParaPlast™ paraffin embedding media. Samples were sectioned at 3 μm, pre-warmed, deparaffinized, rehydrated, and subsequently stained in one of four processes: Hematoxylin and Eosin, Per-Iodic Acid Schiff, Verhoeff's Combined Elastic Trichrome, and Per-Iodic Acid Silver Methenamine. Histological sections were blindly evaluated by two histologists and scored semiquantitatively based on modified Banff' criteria for transplant pathology. [Solez et al., Kidney Int., 44:411-422, 1993]
# [2] = test system: antibody against F344 rat glomeruli basement membrane protein; assay: ELISA of plasma antibody against donor GBM (Example 1); type: in vivo; details: near days 20, 40, 90
# Description: as §1
# Specific antibody against F344 rat glomeruli basement membrane protein in plasma from LEW recipients with F344 kidneys were also measured in the isograft, untreated allograft and allograft treated with the compound (I) at doses of 10 mg/kg and 20 mg/kg near days 20, 40, and 90 after transplantation by using ELISA assay.
smiles,measurement,setting,value
"C#CCC/C(O)=C(\C#N)C(=O)Nc1ccc(C(F)(F)F)cc1 [Compound (I), (2Z)-2-cyano-3-hydroxy-N-[4-(trifluoromethyl)phenyl]-2-hepten-6-ynamide]",Banff grade: Fibro-intimal Hyperplasia,[1]; 10 mg from day 0-9,"++ ((++):Grade 2, Moderate); also recorded: − ((−):Grade 0, Normal)"
same,Banff grade: Glomerulitis,[1]; 10 mg from day 0-9,"+ ((+):Grade 1, Mild); also recorded: − ((−):Grade 0, Normal)"
same,Banff grade: Glomerulosclerosis,[1]; 10 mg from day 0-9,"− ((−):Grade 0, Normal); also recorded: + ((+):Grade 1, Mild)"
same,Banff grade: Inflammation,[1]; 10 mg from day 0-9,"+ ((+):Grade 1, Mild); also recorded: ++ ((++):Grade 2, Moderate)"
same,Banff grade: Mesangiolysis,[1]; 10 mg from day 0-9,"− ((−):Grade 0, Normal); also recorded: + ((+):Grade 1, Mild)"
same,Banff grade: Transplant Glomerulopathy,[1]; 10 mg from day 0-9,"− ((−):Grade 0, Normal); also recorded: + ((+):Grade 1, Mild)"
same,Banff grade: Tubular Atrophy,[1]; 10 mg from day 0-9,"+ ((+):Grade 1, Mild)"
same,Banff grade: Tubulitis,[1]; 10 mg from day 0-9,"− ((−):Grade 0, Normal)"
same,Banff grade: Vasculitis,[1]; 10 mg from day 0-9,"+ ((+):Grade 1, Mild); also recorded: +++ ((+++):Grade 3, Severe)"
same,approximate cumulative reduction in Banff score: fibro-intimal hyperplasia,[1]; 10 mg/kg PO day 0-9,~63%
same,approximate cumulative reduction in Banff score: glomerulitis,[1]; 10 mg/kg PO day 0-9,~75%
same,approximate cumulative reduction in Banff score: glomerulosclerosis,[1]; 10 mg/kg PO day 0-9,~83%
same,approximate cumulative reduction in Banff score: interstitial inflammation,[1]; 10 mg/kg PO day 0-9,~50%
same,approximate cumulative reduction in Banff score: mesangiolysis,[1]; 10 mg/kg PO day 0-9,~83%
same,approximate cumulative reduction in Banff score: transplant glomerulopathy,[1]; 10 mg/kg PO day 0-9,~79%
same,approximate cumulative reduction in Banff score: tubular atrophy,[1]; 10 mg/kg PO day 0-9,~40%
same,approximate cumulative reduction in Banff score: tubulitis,[1]; 10 mg/kg PO day 0-9,~100%
same,approximate cumulative reduction in Banff score: vasculitis,[1]; 10 mg/kg PO day 0-9,~33%
same,Banff grade: Fibro-intimal Hyperplasia,[1]; 20 mg from day 0-9,"++ ((++):Grade 2, Moderate); also recorded: + ((+):Grade 1, Mild)"
same,Banff grade: Glomerulitis,[1]; 20 mg from day 0-9,"++ ((++):Grade 2, Moderate); also recorded: + ((+):Grade 1, Mild); also recorded: − ((−):Grade 0, Normal)"
same,Banff grade: Glomerulosclerosis,[1]; 20 mg from day 0-9,"− ((−):Grade 0, Normal)"
same,Banff grade: Inflammation,[1]; 20 mg from day 0-9,"+ ((+):Grade 1, Mild)"
same,Banff grade: Mesangiolysis,[1]; 20 mg from day 0-9,"− ((−):Grade 0, Normal)"
same,Banff grade: Transplant Glomerulopathy,[1]; 20 mg from day 0-9,"− ((−):Grade 0, Normal)"
same,Banff grade: Tubular Atrophy,[1]; 20 mg from day 0-9,"+ ((+):Grade 1, Mild); also recorded: − ((−):Grade 0, Normal)"
same,Banff grade: Tubulitis,[1]; 20 mg from day 0-9,"− ((−):Grade 0, Normal)"
same,Banff grade: Vasculitis,[1]; 20 mg from day 0-9,"+++ ((+++):Grade 3, Severe); also recorded: − ((−):Grade 0, Normal)"
same,approximate cumulative reduction in Banff score: fibro-intimal hyperplasia,[1]; 20 mg/kg PO day 0-9,~44%
same,approximate cumulative reduction in Banff score: glomerulitis,[1]; 20 mg/kg PO day 0-9,~38%
same,approximate cumulative reduction in Banff score: glomerulosclerosis,[1]; 20 mg/kg PO day 0-9,~100%
same,approximate cumulative reduction in Banff score: interstitial inflammation,[1]; 20 mg/kg PO day 0-9,~67%
same,approximate cumulative reduction in Banff score: mesangiolysis,[1]; 20 mg/kg PO day 0-9,~100%
same,approximate cumulative reduction in Banff score: transplant glomerulopathy,[1]; 20 mg/kg PO day 0-9,~100%
same,approximate cumulative reduction in Banff score: tubular atrophy,[1]; 20 mg/kg PO day 0-9,~85%
same,approximate cumulative reduction in Banff score: tubulitis,[1]; 20 mg/kg PO day 0-9,~100%
same,approximate cumulative reduction in Banff score: vasculitis,[1]; 20 mg/kg PO day 0-9,~50%
same,production of antibody against donor GBM in plasma,[2]; 10 mg/kg PO day 0-9,a trend of reduced production of antibody against donor GBM
same,production of antibody against donor GBM in plasma,[2]; 20 mg/kg PO day 0-9,a trend of reduced production of antibody against donor GBM
